# Test results: patent US4728638A, “Somatostatine derivatives” (Sandoz Ltd., priority 1985, dated 1988)
# Test system: GH-secretion
# Test: GH-secretion inhibiting test: depression of serum GH-levels in the rat (radio-immuno-assay)
# Type: in vivo
# Settings: male rats, s.c.
# Procedure: This test is carried out employing male rats. The test-substance is administered at varying, logarithmically staggered doses employing at least 5 rats per dose. 1, 6 and 18 hours after the administration of the test substance blood is taken. The determination of the serum GH-level is effected by radio-immuno-assay. The compounds of formula I are active in this test when administered at a dosage in the range of from 0.01 to 50 μg/kg s.c.
structure (smiles),measurement,setting,value
"C[C@H](N)C(=O)NCC(=O)N[C@H]1CSSC[C@@H](C(=O)O)NC(=O)[C@H](CO)NC(=O)[C@H]([C@@H](C)O)NC(=O)[C@H](Cc2ccccc2)NC(=O)[C@H]([C@@H](C)O)NC(=O)[C@H](CCCCN)NC(=O)[C@H](Cc2c[nH]c3ccccc23)NC(=O)[C@H](Cc2ccccc2)NC(=O)[C@H](Cc2ccccc2)NC(=O)[C@H](CC(N)=O)NC(=O)[C@H](CCCCN)NC1=O [natural somatostatine, somatostatine]",ID50 in the GH-secretion inhibiting test after 1 hour,blood taken 1 hour after administration,0.95 mg/kg
same,ID50 in the GH-secretion inhibiting test after 6 hours,blood taken 6 hours after administration,extremely high and therefore not determinable
